Columns and labels:
Type in all cases: cell-based
CCNE1 = molecular target: T1, CCNE1 (Homo sapiens, UniProt P24864); experiment: HiBit Assay Protocol for CCNE1 (HIBIT protein quantification, degradation); settings: HEK293-CCNE1-Hibit cells, compound treatment for 6 hours
T1 construct: host or cells: HEK293-CCNE1-Hibit
How it was run: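 Degradation readout: lytic Nano-Glo HiBiT luminescence after 6 h exposure of HEK293-CCNE1-HiBiT cells to 10-point, 3-fold serial dilutions. Signal was scaled between medium-only and DMSO-treated wells, and DC50 came from curve fits.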

CDK2 = molecular target: T2, CDK2 (Homo sapiens, UniProt P24941); experiment: HiBit Assay Protocol for CDK2 (HIBIT protein quantification, degradation); settings: HEK293-CDK2-Hibit cells, compound treatment for 6 hours; for DC50: ABS DC50
T2 construct: host or cells: HEK293-CDK2-Hibit
How it was run: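 DC50 comes from a fitted curve of remaining CDK2-HiBiT luminescence, referenced to DMSO-treated cells and medium-only wells. HEK293-CDK2-HiBiT cells, plated the previous night, received compounds in a 10-point, 3-fold series for 6 h before lysis with LgBiT-containing Nano-Glo HiBiT reagent.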

CDK9 = molecular target: T3, CDK9 (Homo sapiens, UniProt P50750); experiment: HiBit Assay Protocol for CDK9 (HIBIT protein quantification, degradation); settings: 6 h, HEK293-CDK9-Hibit cells, compound treatment for 6 hours; read-out: CDK9 HIBIT Protein Quantification Maximum
T3 construct: host or cells: HEK293-CDK9-Hibit
How it was run: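 Degradation read-out: luminescence after lytic HiBiT/LgBiT detection in HEK293-CDK9-HiBiT cells exposed 6 h to 10-point, 3-fold compound dilutions. Signal scaled between 0.1% DMSO-treated cells and medium alone; DC50 fitted from the curve.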

T1 sequence (P24864 whole entry): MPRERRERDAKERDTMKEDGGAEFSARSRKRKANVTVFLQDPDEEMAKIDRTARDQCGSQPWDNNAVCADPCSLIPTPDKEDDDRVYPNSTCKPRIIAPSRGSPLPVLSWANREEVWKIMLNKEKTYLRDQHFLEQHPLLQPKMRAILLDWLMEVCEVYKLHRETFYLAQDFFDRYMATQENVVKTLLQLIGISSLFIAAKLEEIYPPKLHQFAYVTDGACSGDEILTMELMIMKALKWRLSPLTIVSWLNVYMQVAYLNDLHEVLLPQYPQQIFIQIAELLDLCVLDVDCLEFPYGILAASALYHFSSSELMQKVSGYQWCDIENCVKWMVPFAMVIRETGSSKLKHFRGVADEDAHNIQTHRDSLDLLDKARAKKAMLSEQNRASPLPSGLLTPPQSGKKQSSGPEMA
T3 sequence (P50750 whole entry): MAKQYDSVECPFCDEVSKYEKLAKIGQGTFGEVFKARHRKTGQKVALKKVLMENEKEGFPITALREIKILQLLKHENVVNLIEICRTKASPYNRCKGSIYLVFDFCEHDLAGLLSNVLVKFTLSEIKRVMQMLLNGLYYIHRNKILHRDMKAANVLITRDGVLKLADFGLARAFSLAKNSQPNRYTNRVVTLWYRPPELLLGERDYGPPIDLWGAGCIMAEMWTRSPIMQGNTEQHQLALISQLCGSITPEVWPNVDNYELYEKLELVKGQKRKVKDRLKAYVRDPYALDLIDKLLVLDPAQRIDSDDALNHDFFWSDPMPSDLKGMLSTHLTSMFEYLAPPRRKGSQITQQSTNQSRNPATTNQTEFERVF

SMILES: Cn1nc(N2CCC(=O)NC2=O)c2ccc(C3CCN(Cc4cccc(S(=O)(=O)N5CCC(Nc6ncc7c(n6)N([C@@H]6CCC[C@@H](O)C6)C(=O)C76CC6)CC5)c4F)CC3)cc21 [Compound 172]
- CCNE1 HIBIT Protein Quantification Maximum (CCNE1): 49%
- CDK2 HIBIT Protein Quantification Maximum (CDK2): 74%
- DC50 (CDK2): 4.05 nM
- Dmax (CDK9): 17%

SMILES: Cn1nc(N2CCC(=O)NC2=O)c2ccc(C3CCN(Cc4cccc(S(=O)(=O)N5CCC(Nc6ncc7c(n6)N([C@@H]6CCC[C@@H](O)C6)C(=O)C76CC6)CC5)c4)CC3)c(F)c21 [Compound 175, 1-[7-fluoro-6-(1-{[3-(4-{7′-[(1R,3R)-3-Hydroxycyclohexyl]-6′-oxospiro[cyclopropane-1,5′-pyrrolo[2,3-d]pyrimidin]-2′-ylamino}piperidin-1-ylsulfonyl)phenyl]methyl}piperidin-4-yl)-1-methylindazol-3-yl]-1,3-diazinane-2,4-dione]
- CCNE1 HIBIT Protein Quantification Maximum (CCNE1): 44%
- CDK2 HIBIT Protein Quantification Maximum (CDK2): 78%
- DC50 (CDK2): 4.19 nM
- Dmax (CDK9): 8%

SMILES: Cn1nc(N2CCC(=O)NC2=O)c2cc(F)c(C3CCN(Cc4cccc(S(=O)(=O)N5CCC(Nc6ncc7c(n6)N([C@@H]6CCC[C@@H](O)C6)C(=O)C76CC6)CC5)c4)CC3)cc21 [Compound 176, 1-[5-Fluoro-6-(1-{[3-(4-{7′-[(1R,3R)-3-hydroxycyclohexyl]-6′-oxospiro[cyclopropane-1,5′-pyrrolo[2,3-d]pyrimidin]-2′-ylamino}piperidin-1-ylsulfonyl)phenyl]methyl}piperidin-4-yl)-1-methylindazol-3-yl]-1,3-diazinane-2,4-dione]
- CCNE1 HIBIT Protein Quantification Maximum (CCNE1): 45%
- CDK2 HIBIT Protein Quantification Maximum (CDK2): 79%
- DC50 (CDK2): 3.34 nM
- Dmax (CDK9): 20%

SMILES: Cn1nc(N2CCC(=O)NC2=O)c2ccc(C3CCN(Cc4cccc(S(=O)(=O)N5CCC(Nc6ncc7c(n6)N([C@@H]6CCC[C@@H](O)C6)C(=O)C76CC6)CC5)c4)CC3(F)F)cc21 (stereo partly drawn) [Compound 177, 1-[6-(3,3-difluoro-1-{[3-(4-{7′-[(1R,3R)-3-hydroxycyclohexyl]-6′-oxospiro[cyclopropane-1,5′-pyrrolo[2,3-d]pyrimidin]-2′-ylamino}piperidin-1-ylsulfonyl)phenyl]methyl}piperidin-4-yl)-1-methylindazol-3-yl]-1,3-diazinane-2,4-dione]
- CCNE1 HIBIT Protein Quantification Maximum (CCNE1): 41%
- CDK2 HIBIT Protein Quantification Maximum (CDK2): 81%
- DC50 (CDK2): 6.51 nM
- Dmax (CDK9): 14%

SMILES: Cn1nc(N2CCC(=O)NC2=O)c2ccc(C3CCN(Cc4cccc(S(=O)(=O)N5CCC(Nc6ncc7c(n6)N([C@H]6CCC[C@]6(C)O)C(=O)C76CC6)CC5)c4)CC3)cc21 [Compound 178]
- CCNE1 HIBIT Protein Quantification Maximum (CCNE1): 38%
- CDK2 HIBIT Protein Quantification Maximum (CDK2): 75%
- DC50 (CDK2): 1.8 nM
- Dmax (CDK9): 23%

SMILES: Cn1c(=O)n(C2CCC(=O)NC2=O)c2ccc(N3CCN(Cc4cccc(S(=O)(=O)N5CCC(Nc6ncc7c(n6)N([C@@H]6CCC[C@@H](O)C6)C(=O)C76CC6)CC5)c4)CC3)cc21 (stereo partly drawn) [Compound 179, 3-[5-(4-{[3-(4-{7′-[(1R,3R)-3-Hydroxycyclohexyl]-6′-oxospiro[cyclopropane-1,5′-pyrrolo[2,3-d]pyrimidin]-2′-ylamino}piperidin-1-ylsulfonyl)phenyl]methyl}piperazin-1-yl)-3-methyl-2-oxo-1,3-benzodiazol-1-yl]piperidine-2,6-dione]
- CCNE1 HIBIT Protein Quantification Maximum (CCNE1): 20%
- CDK2 HIBIT Protein Quantification Maximum (CDK2): 78%
- DC50 (CDK2): 7.82 nM
- Dmax (CDK9): 15%

SMILES: Cn1nc(N2CCC(=O)NC2=O)c2ccc(C3CCN(Cc4cccc(S(=O)(=O)N5CCC(Nc6ncc7c(n6)N([C@@H]6CCC[C@@H](O)C6)C(=O)C76CC6)CC5)c4)CC3F)cc21 (stereo partly drawn) [Compound 180, 1-[6-(3-Fluoro-1-{[3-(4-{7′-[(1R,3R)-3-hydroxycyclohexyl]-6′-oxospiro[cyclopropane-1,5′-pyrrolo[2,3-d]pyrimidin]-2′-ylamino}piperidin-1-ylsulfonyl)phenyl]methyl}piperidin-4-yl)-1-methylindazol-3-yl]-1,3-diazinane-2,4-dione]
- CCNE1 HIBIT Protein Quantification Maximum (CCNE1): 48%
- CDK2 HIBIT Protein Quantification Maximum (CDK2): 85%
- DC50 (CDK2): 7.18 nM
- Dmax (CDK9): 34%

SMILES: Cn1c(=O)n(C2CCC(=O)NC2=O)c2cccc(N3CCN(Cc4cccc(S(=O)(=O)N5CCC(Nc6ncc7c(n6)N([C@@H]6CCC[C@@H](O)C6)C(=O)C76CC6)CC5)c4)CC3)c21 (stereo partly drawn) [Compound 181, 3-[4-(4-{[3-(4-{7′-[(1R,3R)-3-hydroxycyclohexyl]-6′-oxospiro[cyclopropane-1,5′-pyrrolo[2,3-d]pyrimidin]-2′-ylamino}piperidin-1-ylsulfonyl)phenyl]methyl}piperazin-1-yl)-3-methyl-2-oxo-1,3-benzodiazol-1-yl]piperidine-2,6-dione]
- CCNE1 HIBIT Protein Quantification Maximum (CCNE1): 38%
- CDK2 HIBIT Protein Quantification Maximum (CDK2): 77%
- DC50 (CDK2): 6.02 nM
- Dmax (CDK9): 11%

SMILES: Cn1nc(N2CCC(=O)NC2=O)c2ccc(C3CCN(Cc4cccc(S(=O)(=O)N5CCC(Nc6ncc7c(n6)N([C@@H]6CCC[C@@H](O)C6)C(=O)C76CC6)CC5)c4)C(C)(C)C3)cc21 (stereo partly drawn) [Compound 183, 1-[6-(1-{[3-(4-{7′-[(1R,3R)-3-Hydroxycyclohexyl]-6′-oxospiro[cyclopropane-1,5′-pyrrolo[2,3-d]pyrimidin]-2′-ylamino}piperidin-1-ylsulfonyl)phenyl]methyl}-2,2-dimethylpiperidin-4-yl)-1-methylindazol-3-yl]-1,3-diazinane-2,4-dione]
- CCNE1 HIBIT Protein Quantification Maximum (CCNE1): 43%
- CDK2 HIBIT Protein Quantification Maximum (CDK2): 67%
- DC50 (CDK2): 2.84 nM
- Dmax (CDK9): 24%

SMILES: Cn1nc(N2CCC(=O)NC2=O)c2ccc(N3CCN(Cc4cccc(S(=O)(=O)N5CCC(Nc6ncc7c(n6)N([C@@H]6CCC[C@@H](O)C6)C(=O)C76CC6)CC5)c4)CC3)cc21 [Compound 184]
- CCNE1 HIBIT Protein Quantification Maximum (CCNE1): 43%
- CDK2 HIBIT Protein Quantification Maximum (CDK2): 90%
- DC50 (CDK2): 5.47 nM
- Dmax (CDK9): 22%

SMILES: CC1CN(Cc2cccc(S(=O)(=O)N3CCC(Nc4ncc5c(n4)N([C@@H]4CCC[C@@H](O)C4)C(=O)C54CC4)CC3)c2)CCN1c1ccc2c(N3CCC(=O)NC3=O)nn(C)c2c1 (stereo partly shown) [Compound 185]
- CCNE1 HIBIT Protein Quantification Maximum (CCNE1): 36%
- CDK2 HIBIT Protein Quantification Maximum (CDK2): 84%
- DC50 (CDK2): 6.77 nM
- Dmax (CDK9): 5%

SMILES: Cn1nc(N2CCC(=O)NC2=O)c2ccc(C3CCN(CC4CCCN(S(=O)(=O)N5CCC(Nc6ncc7c(n6)N([C@@H]6CCC[C@@H](O)C6)C(=O)C76CC6)CC5)C4)CC3)cc21 (stereo partly drawn) [Compound 186, 1-[6-(1-{[1-(4-{7′-[(1R,3R)-3-Hydroxycyclohexyl]-6′-oxospiro[cyclopropane-1,5′-pyrrolo[2,3-d]pyrimidin]-2′-ylamino}piperidin-1-ylsulfonyl)piperidin-3-yl]methyl}piperidin-4-yl)-1-methylindazol-3-yl]-1,3-diazinane-2,4-dione]
- CCNE1 HIBIT Protein Quantification Maximum (CCNE1): 43%
- CDK2 HIBIT Protein Quantification Maximum (CDK2): 62%
- DC50 (CDK2): 2.82 nM
- Dmax (CDK9): 27%

SMILES: CC(c1cccc(S(=O)(=O)N2CC[C@H](Nc3ncc4c(n3)N([C@@H]3CCC[C@@H](O)C3)C(=O)C43CC3)[C@H](F)C2)c1)N1CCN(c2ccc3c(N4CCC(=O)NC4=O)nn(C)c3c2)CC1 (stereo partly shown) [Compound 187]
- CCNE1 HIBIT Protein Quantification Maximum (CCNE1): 45%
- CDK2 HIBIT Protein Quantification Maximum (CDK2): 91%
- DC50 (CDK2): 4.32 nM
- Dmax (CDK9): 11%

SMILES: CC(c1cccc(S(=O)(=O)N2CC[C@H](Nc3ncc4c(n3)N([C@@H]3CCC[C@@H](O)C3)C(=O)C43CC3)[C@H](F)C2)c1)N1CCC(c2ccc3c(N4CCC(=O)NC4=O)nn(C)c3c2)CC1 (stereo partly shown) [Compound 188]
- CCNE1 HIBIT Protein Quantification Maximum (CCNE1): 45%
- CDK2 HIBIT Protein Quantification Maximum (CDK2): 85%
- DC50 (CDK2): 1.92 nM
- Dmax (CDK9): 24%

SMILES: C[C@@H]1CN(c2ccc3c(N4CCC(=O)NC4=O)nn(C)c3c2)CCN1[C@H](C)c1cccc(S(=O)(=O)N2CC[C@H](Nc3ncc4c(n3)N([C@@H]3CCC[C@@H](O)C3)C(=O)C43CC3)[C@H](F)C2)c1 [Compound 191, 1-(6-((R)-4-((R)-1-(3-(((3R,4S)-3-Fluoro-4-((7′-((1R,3R)-3-hydroxycyclohexyl)-6′-oxo-6′,7′-dihydrospiro[cyclopropane-1,5′-pyrrolo[2,3-d]pyrimidin]-2′-yl)amino)piperidin-1-yl)sulfonyl)phenyl)ethyl)-3-methylpiperazin-1-yl)-1-methyl-1H-indazol-3-yl)dihydropyrimidine-2,4(1H,3H)-dione]
- CCNE1 HIBIT Protein Quantification Maximum (CCNE1): 48%
- CDK2 HIBIT Protein Quantification Maximum (CDK2): 90%
- DC50 (CDK2): 21.9 nM
- Dmax (CDK9): 9%

SMILES: C[C@@H]1CN(c2ccc3c(N4CCC(=O)NC4=O)nn(C)c3c2)CCN1[C@@H](C)c1cccc(S(=O)(=O)N2CC[C@H](Nc3ncc4c(n3)N([C@@H]3CCC[C@@H](O)C3)C(=O)C43CC3)[C@H](F)C2)c1 [Compound 192, 1-(6-((R)-4-((S)-1-(3-(((3R,4S)-3-Fluoro-4-((7′-((1R,3R)-3-hydroxycyclohexyl)-6′-oxo-6′,7′-dihydrospiro[cyclopropane-1,5′-pyrrolo[2,3-d]pyrimidin]-2′-yl)amino)piperidin-1-yl)sulfonyl)phenyl)ethyl)-3-methylpiperazin-1-yl)-1-methyl-1H-indazol-3-yl)dihydropyrimidine-2,4(1H,3H)-dione]
- CCNE1 HIBIT Protein Quantification Maximum (CCNE1): 45%
- CDK2 HIBIT Protein Quantification Maximum (CDK2): 92%
- DC50 (CDK2): 4.67 nM
- Dmax (CDK9): 16%

Reference: patent publication US20260070917A1, “CYCLIN DEPENDENT KINASE DEGRADERS AND METHODS OF USE THEREOF” (Differentiated Therapeutics Inc, priority 2023, published 2026)
